# In EPA's ToxRefDB 2:
# Columns and labels:
# rat [1] = conditions: Combined chronic toxicity/carcinogenicity, sprague dawley, Oral, Feed, dose end: 24 month, group: systemic
# mouse [2] = conditions: Carcinogenicity, cd1, Oral, Feed, dose end: 18 month
# dog = conditions: Chronic toxicity, beagle, Oral, Feed, dose end: 60 week, group: cholinesterase
# rabbit [3] = conditions: Prenatal developmental toxicity study, new zealand white, Oral, Capsule, dose end: 18 GD
# mouse [4] = conditions: Carcinogenicity; other; Oral; Feed; dose end: 18 month; group: systemic; systemic / in life observation / body weight / body weight
# rabbit [5] = conditions: Prenatal developmental toxicity study, new zealand white, Oral, Capsule, dose end: 18 GD; remark: listed apart in the source
# mouse [6] = conditions: Carcinogenicity; other; Oral; Feed; dose end: 18 month; group: systemic; systemic / in life observation / body weight / body weight; remark: listed apart in the source
# rat [7] = conditions: Multigenerational reproductive toxicity study, sprague dawley, Oral, Feed, dose end: 2 generation
# rat [8] = conditions: Combined chronic toxicity/carcinogenicity, other, Oral, Feed, dose end: 24 month, group: systemic
# [9] = systemic / in life observation / body weight / body weight + systemic / in life observation / body weight / body weight gain + systemic / …
# [10] = group: cholinesterase, cholinesterase / cholinesterase / cholinesterase / brain cholinesterase (che) + cholinesterase / cholinesterase / cholinesterase / …
# [11] = group: systemic, systemic / in life observation / body weight / body weight gain + systemic / in life observation / food consumption / food consumption + …
# [12] = cholinesterase / cholinesterase / cholinesterase / erythrocyte cholinesterase (che) + cholinesterase / cholinesterase / cholinesterase / …
# [13] = cholinesterase / cholinesterase / cholinesterase / plasma cholinesterase (che)
# [14] = group: developmental, systemic / in life observation / body weight / fetal weight
# [15] = group: maternal, systemic / in life observation / clinical signs / anorexia + systemic / in life observation / clinical signs / no feces + systemic / in life…
# [16] = group: maternal, systemic / in life observation / clinical signs / anorexia + systemic / pathology gross / stomach / fluid contents + systemic / pathology …
# [17] = group: offspring, systemic / in life observation / body weight / offspring (pup) weight + systemic / in life observation / body weight / offspring (pup) …
# [18] = group: parental, systemic / in life observation / body weight / body weight + systemic / in life observation / body weight / body weight gain + systemic / in…
# [19] = group: parental, systemic / in life observation / body weight / body weight gain
# [20] = systemic / organ weight / kidney / absolute + systemic / organ weight / kidney / relative to body weight
smiles,measurement,setting,value
CCOP(=S)(OCC)Oc1nc(Cl)n(C(C)C)n1 [Isazofos],LOAEL,rat [1]; systemic / in life observation / body weight / body weight + systemic / in life observation / body weight / body weight gain,10 mg/kg/day
same,LEL,rat [1]; [9],10 mg/kg/day
same,NEL,rat [1]; [9],0.05 mg/kg/day
same,NOAEL,rat [1]; [9],0.05 mg/kg/day
same,LEL,mouse [2]; [10],4.5 mg/kg/day
same,LOAEL,mouse [2]; [10],4.5 mg/kg/day
same,NEL,mouse [2]; [10],0.15 mg/kg/day
same,NOAEL,mouse [2]; [10],0.15 mg/kg/day
same,LEL,mouse [2]; [11],37.5 mg/kg/day
same,LOAEL,mouse [2]; [11],37.5 mg/kg/day
same,NEL,mouse [2]; [11],4.5 mg/kg/day
same,NOAEL,mouse [2]; [11],4.5 mg/kg/day
same,LOAEL,dog; [12],> 1.61 mg/kg/day
same,NOAEL,dog; [12],≥ 1.61 mg/kg/day
same,LEL,dog; [13],0.0015 mg/kg/day
same,NEL,dog; [13],< 0.0015 mg/kg/day
CC(C)([CH2][Sn]([CH2]C(C)(C)c1ccccc1)([CH2]C(C)(C)c1ccccc1)[O][Sn]([CH2]C(C)(C)c1ccccc1)([CH2]C(C)(C)c1ccccc1)[CH2]C(C)(C)c1ccccc1)c1ccccc1 [Fenbutatin oxide],LEL,rabbit [3]; [14],10 mg/kg/day
same,LOAEL,rabbit [3]; [14],10 mg/kg/day
same,NEL,rabbit [3]; [14],5 mg/kg/day
same,NOAEL,rabbit [3]; [14],5 mg/kg/day
same,LEL,rabbit [3]; [15],5 mg/kg/day
same,LOAEL,rabbit [3]; [15],5 mg/kg/day
same,NEL,rabbit [3]; [15],1 mg/kg/day
same,NOAEL,rabbit [3]; [15],1 mg/kg/day
same,LEL,mouse [4],45 mg/kg/day
same,LOAEL,mouse [4],45 mg/kg/day
same,NEL,mouse [4],15 mg/kg/day
same,NOAEL,mouse [4],15 mg/kg/day
same,LEL,rabbit [5]; [14],10 mg/kg/day
same,LOAEL,rabbit [5]; [14],10 mg/kg/day
same,NEL,rabbit [5]; [14],5 mg/kg/day
same,NOAEL,rabbit [5]; [14],5 mg/kg/day
same,LEL,rabbit [5]; [16],5 mg/kg/day
same,LOAEL,rabbit [5]; [16],5 mg/kg/day
same,NEL,rabbit [5]; [16],1 mg/kg/day
same,NOAEL,rabbit [5]; [16],1 mg/kg/day
same,LEL,mouse [6],45 mg/kg/day
same,LOAEL,mouse [6],45 mg/kg/day
same,NEL,mouse [6],15 mg/kg/day
same,NOAEL,mouse [6],15 mg/kg/day
same,LEL,"rat [7]; group: offspring, systemic / in life observation / body weight / offspring (pup) weight",5.92 mg/kg/day
same,LOAEL,rat [7]; [17],17.4 mg/kg/day
same,NEL,rat [7]; [17],3.18 mg/kg/day
same,NOAEL,rat [7]; [17],5.2 mg/kg/day
same,LOAEL,rat [7]; [18],30 mg/kg/day
same,NOAEL,rat [7]; [18],14.8 mg/kg/day
same,LEL,rat [7]; [19],2.39 mg/kg/day
same,NEL,rat [7]; [19],< 2.39 mg/kg/day
same,LOAEL,rat [8]; systemic / clinical chemistry / alkaline phosphatase (alp/alk) / alkaline phosphatase (alp/alk),15 mg/kg/day
same,NOAEL,rat [8]; systemic / clinical chemistry / alkaline phosphatase (alp/alk) / alkaline phosphatase (alp/alk) + systemic / clinical chemistry / urea …,5 mg/kg/day
same,LEL,rat [8]; [20],2.5 mg/kg/day
same,NEL,rat [8]; [20],< 2.5 mg/kg/day
